Several values for one entry are separate records, joined by “and”; a condition that tells them apart may be missing. Equal entries are not always repeated.

Data on 2 compounds can be found in patent US20250059139A1, “COMPOUNDS FOR TREATMENT OF CANCER” (THE JOHNS HOPKINS UNIVERSITY, priority 2021, published 2025).

The test system of one series is HDAC4 KD LNCaP cells. As to the kind of experiment: In vitro growth of HDAC4 KD LNCaP cells. It is filed as cell-based, human. The protocol:
Generation of stable shRNA Knock Down (KD) Variants. Stable shRNA HDAC4, and HIF-1α knockdown (KD) were as described previously (id.). Stable shRNA AHR KD as described previously (id.) using […] (SEQ ID NO: 1) as the targeting sequence.
Similarly, under such optimal conditions, knocking down HDAC4 expression by 50% with shRNA only decreases the growth of LNCaP cells by <25%, which is equivalent to the inhibition by TasQ at 10 μM (FIG. 22). […] In contrast to normoxic in vitro conditions, cancers outgrow their blood supply in vivo, producing a TME that is hypoxic, nutrient-limited, and acidic (low pH). For example, when prostate cancer xenografts growing subcutaneously reach a size of ˜0.2-0.3 cc, the TME is already hypoxic with a pO2 of 3.6+/−1.5 mmHg compared to 37.5+/−8.6 mmHg in normal tissue (Dalrymple et al. Prostate 72, 638-648 (2012)). When LNCaP cells are switched from 21% O2 (i.e., 160 mmHg) to a hypoxic condition of 1% O2 (i.e., 7.6 mmHg), their growth decreases by 50% (FIG. 22). This hypoxia-induced growth inhibition is enhanced by either knocking down HDAC4 or by treatment with TasQ (FIG. 22).

The test system of another series is CYP1A1. Briefly: CYP1A1 mRNA induction in LNCaP cells (RT-PCR). The note with it: human, read-out: EC50 as a CYP1A inducer in LNCaP cells. It is filed as cell-based. The source says:
Real-time quantitative PCR (Q-PCR) analysis. […] ID NO: 2) and […] ID NO: 3). […] ID NO: 4) and […] ID NO: 5).

The test system of series [1] is human prostate cancer cell lines. The note with it: optimal normoxic, nutrient and pH culture conditions; previous studies; read-out: IC50 in vitro growth of human prostate cancer cell lines; cited from earlier work.
The next series has as its system solid malignances. The note with it: cited from earlier work.
The test system of a further series is panel of 68 kinases. Briefly: Targeted kinase screen (Kinase Profiling Service, Thermo Fisher Scientific). In kind it is biochemical. The following applies: 10 μM. The protocol:
Targeted kinase screen. Inhibition of enzymatic activity of a panel of kinases in the presence of 10 μM ESATA-20 was analyzed by the Kinase Profiling Service at Thermo Fisher Scientific.

Regarding `COc1cccc2c1c(O)c(C(=O)N(C)c1ccc(C(F)(F)F)cc1)c(=O)n2C` [TasQ, Tasquinimod], in the series with HDAC4 KD LNCaP cells (10 μM, 1% O2), the “effect on HDAC4 KD cells exposed to hypoxia” value is listed as “the cells die”. The inhibition (in general, the change of the read-out against control, counted positive when it falls) at 10 µM in the series with HDAC4 KD LNCaP cells (Homo sapiens, LNCaP, normoxic) was over 50%. Besides, the EC50 (as a rule, the concentration at which the effect is half-maximal) in the series with CYP1A1 was 1 µM. Besides, the IC50 – broadly, the concentration that gives 50% inhibition – in series [1] is > 50 µM and ~50 µM. Besides, in the series with solid malignances (in vivo), the “fold increase in anti-tumor efficacy compared to Linomide” value is listed as over 25 fold. Further, the “fold enhanced potency in antiangiogenic and anti-metastatic ability” value in the series on solid malignances (preclinical studies, vs. first-generation Linomide) was 30-60 fold.
Take `COc1cccc2c1c(O)c(C(=O)N(c1ccc(C(F)(F)F)cc1)C1CCCCC1)c(=O)n2C` [ESATA-20]: the “change in activity in any of the 68 kinases tested” value in the series on panel of 68 kinases is recorded as under 15%.
